Assay results reported in patent US9573887B2, “Naphthalene derivative” (Daito Chemix Corporation, priority 2010, dated 2017).
Where a name gives a salt, the structure may show the parent alone.

Biological target: T1, Mouse VCP (Mus musculus, UniProt Q01853)
T1 construct: histidine tag (N); made in house; host or cells: Sf-9 insect cells (baculovirus vector pVL1392)
Experiment: ATPase activity of purified His-tagged VCP, [γ-32P]ATP, liberated phosphate by liquid scintillation
Format: biochemical
Description: In one aspect, the effect of VCP regulators for regulating ATPase activity is determined, for example by the following exemplary assay. Mouse VCP cDNA (the amino acid sequence is completely identical among mouse, rat and human) is added with a DNA sequence corresponding to a histidine tag at the amino-terminal, subcloned into a baculovirus vector pVL1392 (BD Bioscience), and expressed in Sf-9 insect cells. The protein is purified with a nickel column. After the purification the concentration of the protein is adjusted to 0.25-0.5 μg/ml and the protein is stored in a solution containing 50 mM TrisCl pH 8.0, 5 mM EDTA, 10% glycerol, and 15 mM DTT at 4° C. 500 ng of the purified VCP is mixed with 100 μM [γ-^32P]ATP (18.5 GBq/mmol) and the test substance in 20 μL of ATPase buffer (20 mM HEPES (pH7.4), 50 mM KCl, 5 mM MgCl2, 15 mM DTT), and incubated at 37° C. for 10 minutes. The enzyme reaction is stopped with addition of 200 μL of an ice-cold solution containing 7% TCA and 1 mM K2HPO4. 50μ of a solution containing 3.75% ammonium molybdate and 0.02M tungstate silicic/3 N H2SO4 is added, followed by 300 μL of n-butylacetic acid, and then the liberated phosphate is extracted into the organic layer. The reaction tube is centrifuged for 5 minutes at 20,000 g to separate the aqueous layer and the organic layer, 200 μL of the organic layer is taken, and the beta ray radiated from the liberated phosphate is quantified with liquid scintillation counter. By measuring the ATPase activity in the presence of the test substance at various concentrations, ATPase inhibitory activity of the test substance is measured.
Mouse VCP cDNA was added with a DNA sequence corresponding to histidine tag at the amino-terminal, subcloned into a baculovirus vector pVL1392 (BD Bioscience), and expressed in Sf-9 insect cells. The protein was purified with a nickel column (GE Healthcare). The concentration of the protein was adjusted to 0.25-0.5 μg/ml and the protein was stored in a solution containing 50 mM TrisCl pH 8.0, 5 mM EDTA, 10% glycerol, and 15 mM DTT.
The ATPase activity was determined as follows. 500 ng of the purified VCP was mixed with 100 μM [γ-32P]ATP (18.5 GBq/mmol) and the test substance in 20 μL of ATPase buffer (20 mM HEPES (pH7.4), 50 mM KCl, 5 mM MgCl2, 15 mM DTT), and incubated at 37° C. for 10 minutes.
The enzyme reaction was stopped with addition of 200 μL of an ice-cold solution containing 7% TCA and 1 mM K2HPO4. 50μ of a solution containing 3.75% ammonium molybdate and 0.02M tungstate silicic/3 NH2SO4 was added, followed by 300 μL of n-butylacetic acid, and then the liberated phosphate was extracted into the organic layer. The reaction tube was centrifuged for 5 minutes at 20,000 g to separate the aqueous layer and the organic layer, 200 μL of the organic layer was taken, and the beta ray radiated from the liberated phosphate was quantified with liquid scintillation counter.
By measuring the ATPase activity in the presence of the test substance at various concentrations, ATPase inhibitory activity of the test substance was measured. IC50 of the each test substance was calculated by applying the measured values to the equation below using GraphPad Prism (GraphPad Software).

[1] = compounds of Comparative Examples, determined in the same manner as the Examples
[2] = compounds of Examples, ATPase inhibitory activity, 500 ng VCP, 100 μM ATP, 37° C., 10 minutes

T1 sequence (Q01853 whole entry): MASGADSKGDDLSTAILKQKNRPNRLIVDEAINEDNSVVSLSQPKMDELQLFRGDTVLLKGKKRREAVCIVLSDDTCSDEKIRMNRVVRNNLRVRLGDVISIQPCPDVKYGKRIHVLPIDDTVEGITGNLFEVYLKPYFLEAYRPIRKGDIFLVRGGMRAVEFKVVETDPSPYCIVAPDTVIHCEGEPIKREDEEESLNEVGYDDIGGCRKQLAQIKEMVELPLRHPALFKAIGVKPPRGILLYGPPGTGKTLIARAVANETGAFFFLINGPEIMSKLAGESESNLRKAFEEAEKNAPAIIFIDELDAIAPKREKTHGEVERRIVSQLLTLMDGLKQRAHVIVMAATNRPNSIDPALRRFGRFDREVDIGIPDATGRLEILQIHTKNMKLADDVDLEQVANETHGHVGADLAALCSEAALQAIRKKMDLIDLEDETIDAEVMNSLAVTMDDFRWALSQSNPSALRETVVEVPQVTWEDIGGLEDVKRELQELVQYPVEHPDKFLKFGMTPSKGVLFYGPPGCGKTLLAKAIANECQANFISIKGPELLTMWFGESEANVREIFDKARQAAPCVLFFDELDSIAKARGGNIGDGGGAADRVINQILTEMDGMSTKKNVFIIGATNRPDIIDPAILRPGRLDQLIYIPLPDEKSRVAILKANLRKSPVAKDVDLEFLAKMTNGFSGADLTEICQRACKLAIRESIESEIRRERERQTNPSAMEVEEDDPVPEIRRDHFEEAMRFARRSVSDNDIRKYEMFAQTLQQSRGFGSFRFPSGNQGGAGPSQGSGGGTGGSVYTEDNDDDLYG

| IC50 [1] [nM] | SMILES | IC50 [2] [nM] |
| --- | --- | --- |
| > 100000 | O=[N+]([O-])c1ccc(-c2cccc3c2sc2ccccc23)nc1 [Example 29, sodium salt] |  |
|  | Nc1c(/N=N/c2ccc(/C=C/c3ccccc3)nc2)cc(S(=O)(=O)O)c2ccccc12 [Example 30, 4-amino-3-(6-styrylpyridine-3-ylazo)naphthalenesulfonic acid sodium salt] | 1140 |
| > 100000 | Nc1ccc(-c2cccc3c2sc2ccccc23)nc1 [Example 30, sodium salt] |  |
|  | Nc1c(/N=N/c2ccc(-c3cccc4c3sc3ccccc34)nc2)cc(S(=O)(=O)O)c2ccccc12 [Example 31, 4-amino-3-(6-dibenzothiophene-4-ylpyridine-3-ylazo)naphthalene-1-sulfonic acid sodium salt] | 1030 |
|  | COc1cccc(-c2ccc(/N=N/c3cc(S(=O)(=O)O)c4ccccc4c3N)cn2)c1 [Example 32, 4-amino-3-[6-(3-methoxyphenyl)pyridine-3-ylazo]naphthalene-1-sulfonic acid sodium salt] | 428 |
|  | Cc1cccc(-c2ccc(/N=N/c3cc(S(=O)(=O)O)c4ccccc4c3N)cn2)c1C [Example 33, 4-amino-3-[6-(2,3-dimethylphenyl)pyridine-3-ylazo]naphthalene-1-sulfonic acid sodium salt] | 301 |
|  | Cc1ccc(C)c(-c2ccc(/N=N/c3cc(S(=O)(=O)O)c4ccccc4c3N)cn2)c1 [Example 34, 4-amino-3-[6-(2,5-dimethylphenyl)pyridine-3-ylazo]naphthalene-1-sulfonic acid sodium salt] | 274 |
|  | Cc1cc(C)cc(-c2ccc(/N=N/c3cc(S(=O)(=O)O)c4ccccc4c3N)cn2)c1 [Example 35, 4-amino-3-[6-(3,5-dimethylphenyl)pyridine-3-ylazo]naphthalene-1-sulfonic acid sodium salt] | 632 |
|  | Nc1c(/N=N/c2ccc(-c3ncco3)nc2)cc(S(=O)(=O)O)c2ccccc12 [Example 36, 4-amino-3-(6-oxazole-2-ylpyridine-3-ylazo)naphthalene-1-sulfonic acid sodium salt] | 279 |
|  | Nc1c(/N=N/c2ccc(-c3cccc(C(F)(F)F)c3)nc2)cc(S(=O)(=O)O)c2ccccc12 [Example 37, 4-amino-3-[6-(3-trifluoromethylphenyl)pyridine-3-ylazo]naphthalene-1-sulfonic acid sodium salt] | 726 |
|  | Nc1c(/N=N/c2ccc(-c3cccc4ccccc34)nc2)cc(S(=O)(=O)O)c2ccccc12 [Example 38, 4-amino-3-(6-naphthalene-1-ylpyridine-3-ylazo)naphthalene-1-sulfonic acid sodium salt] | 234 |
|  | Nc1c(/N=N/c2ccc(-c3cccc4c3oc3ccccc34)nc2)cc(S(=O)(=O)O)c2ccccc12 [Example 39, 4-amino-3-(6-dibenzofuran-4-ylpyridine-3-ylazo)naphthalene-1-sulfonic acid sodium salt] | 754 |
|  | COC(=O)CCC(=O)c1ccc(-c2ccc(/N=N/c3cc(S(=O)(=O)O)c4ccccc4c3N)cn2)cc1 [Example 40, methyl 4-{4-[5-(1-amino-4-sulfonaphthalene-2-ylazo)pyridine-2-yl]phenyl}-4-oxobutyrate sodium salt] | 328 |
|  | Nc1c(/N=N/c2ccc(-c3csc4ccccc34)nc2)cc(S(=O)(=O)O)c2ccccc12 [Example 41, 4-amino-3-(6-benzo[b]thiophene-3-ylpyridine-3-ylazo)naphthalene-1-sulfonic acid sodium salt] | 210 |
|  | Nc1c(/N=N/c2ccc(-c3cccc(-c4ccccc4)c3)nc2)cc(S(=O)(=O)O)c2ccccc12 [Example 42, 4-amino-3-(6-biphenyl-3-ylpyridine-3-ylazo)naphthalene-1-sulfonic acid sodium salt] | 769 |
|  | Nc1c(/N=N/c2ccc(-c3cccc4c3sc3ccccc34)nc2)cc(S(=O)(=O)O)c2ccccc12 [Example 43, 4-amino-3-(6-dibenzothiophene-4-ylpyridine-3-ylazo)naphthalene-1-sulfonic acid potassium salt] | 1040 |
|  | N#Cc1cccc(-c2ccc(/N=N/c3cc(S(=O)(=O)O)c4ccccc4c3N)cn2)c1 [Example 44, 4-amino-3-[6-(3-cyanophenyl)pyridine-3-ylazo]naphthalene-1-sulfonic acid sodium salt] | 584 |
|  | N#Cc1ccc(-c2ccc(/N=N/c3cc(S(=O)(=O)O)c4ccccc4c3N)cn2)cc1 [Example 45, 4-amino-3-[6-(4-cyanophenyl)pyridine-3-ylazo]naphthalene-1-sulfonic acid sodium salt] | 524 |
|  | Nc1c(/N=N/c2ccc(-c3ccc(C(=O)c4ccccc4)cc3)nc2)cc(S(=O)(=O)O)c2ccccc12 [Example 47, 4-amino-3-[6-(4-benzoylphenyl)pyridine-3-ylazo]naphthalene-1-sulfonic acid sodium salt] | 589 |
|  | CCCOc1ccccc1-c1ccc(/N=N/c2cc(S(=O)(=O)O)c3ccccc3c2N)cn1 [Example 48, 4-amino-3-[6-(2-propoxyphenyl)pyridine-3-ylazo]naphthalene-1-sulfonic acid sodium salt] | 127 |
|  | Cc1cc(F)ccc1-c1ccc(/N=N/c2cc(S(=O)(=O)O)c3ccccc3c2N)cn1 [Example 49, 4-amino-3-[6-(4-fluoro-2-methylphenyl)pyridine-3-ylazo]naphthalene-1-sulfonic acid sodium salt] | 330 |
|  | Nc1c(/N=N/c2cccnc2-c2ccccc2)cc(S(=O)(=O)O)c2ccccc12 [Example 50, 4-amino-3-(2-phenylpyridine-3-ylazo)naphthalene-1-sulfonic acid sodium salt] | 468 |
|  | Nc1c(/N=N/c2cccnc2-c2cccnc2)cc(S(=O)(=O)O)c2ccccc12 [Example 51, 4-amino-3-([2,3′]-bipyridinyl3-ylazo)naphthalene-1-sulfonic acid sodium salt] | 3070 |
|  | Nc1c(/N=N/c2ccc(-c3cccnc3)nc2)cc(S(=O)(=O)O)c2ccccc12 [Example 52, 4-amino-3-([2,3′]bipyridinyl-5-ylazo)naphthalene-1-sulfonic acid sodium salt] | 1390 |
|  | Cc1cc(-c2cccnc2)ncc1/N=N/c1cc(S(=O)(=O)O)c2ccccc2c1N [Example 53, 4-amino-3-(4-methyl-[2,3′]bipyridinyl-5-ylazo)naphthalene-1-sulfonic acid sodium salt] | 1150 |
|  | Nc1c(/N=N/c2ccc(-c3cccnc3)nc2-c2cccnc2)cc(S(=O)(=O)O)c2ccccc12 [Example 54, 4-amino-3-([3,2′;6′,3″]terpyridine-3′-ylazo)naphthalene-1-sulfonic acid sodium salt] | 1060 |
|  | CCCOc1ccc(F)cc1-c1ccc(/N=N/c2cc(S(=O)(=O)O)c3ccccc3c2N)cn1 [Example 55, 4-amino-3-[6-(5-fluoro-2-propoxyphenyl)pyridine-3-ylazo]naphthalene-1-sulfonic acid sodium salt] | 139 |
|  | CCCOc1cccc(F)c1-c1ccc(/N=N/c2cc(S(=O)(=O)O)c3ccccc3c2N)cn1 [Example 56, 4-amino-3-[6-(2-fluoro-6-propoxyphenyl)pyridine-3-ylazo]naphthalene-1-sulfonic acid sodium salt] | 246 |
|  | CCCOc1cc(F)ccc1-c1ccc(/N=N/c2cc(S(=O)(=O)O)c3ccccc3c2N)cn1 [Example 57, 4-amino-3-[6-(4-fluoro-2-propoxyphenyl)pyridine-3-ylazo]naphthalene-1-sulfonic acid sodium salt] | 1390 |
|  | Cc1ccc(F)cc1-c1ccc(/N=N/c2cc(S(=O)(=O)O)c3ccccc3c2N)cn1 [Example 58, 4-amino-3-[6-(5-fluoro-2-methylphenyl)pyridine-3-ylazo]naphthalene-1-sulfonic acid sodium salt] | 320 |
